Reference: patent publication US10081609B2, “Compounds for inducing proliferation and differentiation of cells, and methods of use thereof” (The Broad Institute, Inc., priority 2013, dated 2018)
In brackets after ≈: the same amount, converted by molar mass. Several values for one entry are separate records, joined by “and”; a condition that tells them apart may be missing. Identical values can stand only once. Like-named read-outs stand apart in the source and are kept apart here.

Experiments:
Plasma stability - Human = assay type: in vitro ADME
Experimental: (§1) Selected compounds of the invention were evaluated for physico-chemical properties, including solubility, microsomal stability, protein binding and plasma stability (Table 2).
(§2) Selected compounds of the invention were evaluated for physico-chemical properties, including solubility, microsomal stability, protein binding and plasma stability (Table 3).

Protein binding - Human = assay type: in vitro ADME
Experimental: as §1, §2

[1] = Microsomal stability - Human; assay type: in vitro ADME; conditions: for Microsomal stability No NADPH: non-enzymatic microsomal mechanisms only; for Microsomal stability Average: enzymatic and non-enzymatic microsomal mechanisms
Experimental: as §1, §2

[2] = Solubility in PBS with 1% DMSO; assay type: physicochemical
Experimental: as §1, §2

[3] = test system: human primary hepatocytes; test: High-throughput liver platform, primary screening: hepatocyte proliferation by automated high-content imaging (hepatocyte nuclei numbers); assay type: cell-based; conditions: for hit class in the high-throughput liver platform: human primary hepatocytes
Experimental: In order to avoid species-specific differences and cell line mutations, the screen was conducted with human primary hepatocytes. Traditionally, chemical screening on such cells has been hindered by their availability in large quantities as well as their rapid loss of viability and phenotype in vitro. Recent advances in cryopreservation technologies allowed enough primary human cells to be stored for screening; these cells are maintained through co-cultivation with non-parenchymal cells. Co-cultures of primary human hepatocytes with murine embryonic J2-3T3 fibroblasts were recently shown to maintain normal hepatocyte phenotype for weeks. These in vitro platforms consisted of hepatocytes surrounded by a co-planar population of fibroblasts. While sufficient for stabilizing hepatocyte functions in vitro, such platforms may limit normal hepatocyte expansion due to contact inhibition. Thus, for this screen, a sparse population of hepatocytes was co-cultivated on top of a confluent feeder layer of J2-3T3 fibroblasts within 384-well plates (FIG. 1A top). This screening platform stabilized hepatocyte phenotypic functions in vitro (FIG. 1A bottom) and was compatible with two separate high-throughput readouts developed for this screen.
The primary readout detected hepatocyte proliferation via automated high-content imaging. This assay quantified hepatocyte nuclei numbers, using nuclear morphologies to separate the hepatocyte and fibroblast subpopulations that co-exist within the screening platform. When visualized with Hoechst stain, hepatocyte nuclei were smaller and more uniform in texture while fibroblast nuclei were larger and punctated (FIG. 1A bottom). Leveraging this distinction, automated image analyses was developed that utilized machine learning algorithms to classify nuclei types and tabulate hepatocyte nuclei numbers. […] Besides quantifying hepatocyte nuclei that have completed mitosis, the number of nuclei in the process of mitosis were also quantified. Two additional analysis pipelines were built to detect nuclear morphologies consistent with cells undergoing metaphase and anaphase.
FIG. 1B top summarizes the workflow of the screen. Primary screening was done on human primary hepatocytes, preconditioned for seven days by non-parenchymal cells in the screening platform. Upon stabilization in vitro, cultures were treated with the chemical library for 48 hours. All compounds were tested in duplicates, at a single concentration of 15 μM. This single concentration was selected via a pilot screen of ˜2,000 small molecules. All 12,480 small molecules were initially tested on a single donor of cryopreserved hepatocytes (donor a) in order to eliminate noise from donor-to-donor variability. Following compound treatment, media supernatants were collected for functional analyses via ELISA and cultures were fixed in 4% paraformaldehyde for proliferation analyses via imaging.
To identify proliferation hits, three image-based readouts—one each to quantify the number of (1) hepatocyte nuclei in interphase, (2) nuclei in metaphase and (3) nuclei in anaphase—were integrated. z Scores were converted into p values, which were then used to generate ranked lists of compounds based on the efficacy and consistency of effects across the different proliferation readouts. Efficacy was assessed by the product of p values (pprod=pinter×pmeta×pana); consistency was evaluated by the maximum of p values (pmax=max(pinter, pmeta, pana). Compounds were considered proliferation hits if pprod<1×10^−6 and pmax<0.25. Functional hits were selected by an ELISA […]. Compounds with ELISA z>3.0 were eliminated as toxic. 93 compounds met all hit selection criteria, qualifying as Functional Proliferation Hits (FPH); FIG. 1B bottom illustrates the types of compounds that constituted this set of hits.

iHeps = test: Differentiation and maturation of iHeps (albumin/AFP ELISA, staining, CYP3A4 activity); assay type: cell-based, human
Experimental: Undifferentiated iPS cells were cultured on Matrigel, supported by primary mouse embryonic fibroblasts. Once confluent, iPS cells were transitioned to differentiation media, with sequential addition of growth factors (Activin A, BMP-4, bFGF, HGF, and OSM) to guide differentiation, first into endoderm, then into hepatic progenitor cells and finally into iHeps. Compound treatment started on day 21 post initiation of differentiation and acted over a period of 9 days.
Consistent with the literature, untreated cultures had islands that double stain for albumin and the fetal marker AFP, with very little presence of the mature marker […].
The ability of compounds 201-212, 217 and 244-258 to affect the differentiation of iHeps was also tested.

[4] = test system: human primary hepatocytes; test: Expansion of compound-treated human primary hepatocytes (cell counts, Ki67 staining); assay type: cell-based; conditions: FIG. 11A
Experimental: The metabolic phenotype of the treated hepatocytes was assessed for canalicular transport. […] Gene expression profiling confirmed that there was no significant differences between FPH-treated and untreated hepatocytes (FIG. 11D).
The ability of compounds 201-212, 215, 217 and 244-258 to expand human primary hepatocytes in vitro was also tested.

[5] = test system: iPS-derived endothelial cells; test: Differentiation of iPS-derived endothelial cells (nitric oxide); assay type: cell-based
Experimental: Cells were assayed for nitric oxide (NO), a mature marker for endothelial cells. CB=FPH2, M=FH1, E=PH1, while Null and DMSO are control runs with no additive and vehicle only, respectively.

[6] = test system: lfabp:GFP zebrafish embryos; test: Therapeutic window after a non-fatal dose of APAP in zebrafish embryos (liver size); assay type: in vivo; conditions: 5 mM APAP for 24 hrs before 24 hour treatment
Experimental: The current clinical treatment for APAP toxicity is the administration of NAC, which has a limited window of efficacy. To examine the therapeutic window of FH1 and PH1 efficacy, lfabp:GFP zebrafish embryos were allowed to develop normally for 48 hrs post fertilization, and then exposed to a non-fatal dose of 5 mM APAP for 24 hrs before initiation of treatment with FH1 or PH1 for an additional 24 hour period (FIG. 10A).

[7] = test system: transgenic lfabp:GFP zebrafish; test: Liver development in transgenic lfabp:GFP zebrafish embryos; assay type: in vivo; conditions: exposure 24 to 72 hrs post fertilization
Excerpt: The effects of FH1 and PH1 on liver development were examined in transgenic lfabp:GFP zebrafish, in which GFP expression is restricted to the liver. Zebrafish embryos were allowed to develop normally for 24 hrs post fertilization and then exposed to either FH1 or PH1 until 72 hrs post fertilization (FIG. 8A). Livers were visualized by whole-mount fluorescence imaging (FIG. 8B) and lfabp in situ hybridization (FIG. 8C).

[8] = aqueous buffer, kinetic from dmso stock, read-out: Solubility Average
[9] = aqueous buffer, kinetic from dmso stock, read-out: Solubility Rep1
[10] = aqueous buffer, kinetic from dmso stock, read-out: Solubility Rep2
[11] = aqueous buffer, kinetic from dmso stock, read-out: Solubility Rep3

Plasma stability Average (Plasma stability - Human)	Protein binding Average (Protein binding - Human)	Protein binding Rep1 (Protein binding - Human)	Protein binding Rep2 (Protein binding - Human)	Microsomal stability Rep1 [1]	Microsomal stability Rep2 [1]	Microsomal stability No NADPH [1]	Microsomal stability Average [1]	solubility [2, 8]	solubility [2, 9]	solubility [2, 10]	solubility [2, 11]	Compound	further results
101.4 % remaining	91.2 % bound	90.9 % bound	91.6 % bound	4.2 % remaining	4.5 % remaining	110.6 % remaining	4.4 % remaining	23 µM (≈ 9.68 µg/mL)	23 µM (≈ 9.68 µg/mL)	22 µM (≈ 9.26 µg/mL)	26 µM (≈ 10.9 µg/mL)	Cc1ccc(Cl)cc1N(CC(=O)N(S)c1c(F)cccc1F)S(C)(=O)=O [BRD-K61250484-001-01-5]	
98.0 % remaining	99.3 % bound	99.3 % bound	99.3 % bound	53.9 % remaining	58.1 % remaining	104.2 % remaining	56.0 % remaining	25 µM (≈ 13.7 µg/mL)	23 µM (≈ 12.6 µg/mL)	28 µM (≈ 15.3 µg/mL)	24 µM (≈ 13.1 µg/mL)	C[C@H](CO)N1C[C@H](C)[C@H](CN(C)C(=O)Nc2ccc(F)cc2)Oc2ncc(-c3cc4ccccc4o3)cc2C1=O [Compound 106, 1-(((2R,3S)-8-(benzofuran-2-yl)-5-((R)-1-hydroxypropan-2-yl)-3-methyl-6-oxo-3,4,5,6-tetrahydro-2H-pyrido[2,3-b][1,5]oxazocin-2-yl)methyl)-3-(4-fluorophenyl)-1-methylurea]	albumin staining (immunofluorescent) (iHeps): dramatic increases; hepatocyte phenotype of treated iHeps (iHeps): more mature hepatocyte phenotypes; AFP secretion (ELISA) (iHeps; treatment from day 21, 9 days): decreased; albumin secretion (ELISA) (iHeps; treatment from day 21, 9 days): increased; proliferation of hepatocytes [4]: induced proliferation
0.5 % remaining and 0.4 % remaining												CC1CC(OC(=O)C(O)c2ccccc2)CC(C)(C)N1C (stereo not drawn) [Eucatropine, reference compound]	

Second part, the molecule before the results:

Compound	Plasma stability Average (Plasma stability - Human)	Protein binding Average (Protein binding - Human)	Protein binding Rep1 (Protein binding - Human)	Protein binding Rep2 (Protein binding - Human)	Microsomal stability Rep1 [1]	Microsomal stability Rep2 [1]	Microsomal stability No NADPH [1]	Microsomal stability Average [1]	solubility [2, 8]	solubility [2, 9]	solubility [2, 10]	solubility [2, 11]	further results
CCCCOc1cc(CC2CNC(=O)N2)ccc1OC (stereo not drawn) [BRD-A07207424-001-04-1]	105.9 % remaining	75.6 % bound	76.2 % bound	75.0 % bound	81.5 % remaining	85.5 % remaining	100.3 % remaining	83.5 % remaining	> 100 µM	112 µM (≈ 31.2 µg/mL)	114 µM (≈ 31.7 µg/mL)	104 µM (≈ 28.9 µg/mL)	
CC(=O)Nc1ccc(Cc2ccc(NC(C)=O)cc2)cc1 [BRD-K44777625-001-01-9]	100.6 % remaining	91.0 % bound	91.0 % bound	91.0 % bound	71 % remaining	66.7 % remaining	63 % remaining	68.9 % remaining	40 µM (≈ 11.3 µg/mL)	45 µM (≈ 12.7 µg/mL)	39 µM (≈ 11 µg/mL)	36 µM (≈ 10.2 µg/mL)	
CCn1cc(NC(=S)Nc2cc(Cl)ccc2OC)c(C(N)=O)n1 [BRD-K94248251]	63.9 % remaining	95.8 % bound	95.7 % bound	95.9 % bound	41.7 % remaining	39.4 % remaining	123.1 % remaining	40.6 % remaining	20 µM (≈ 7.08 µg/mL)	23 µM (≈ 8.14 µg/mL)	16 µM (≈ 5.66 µg/mL)	21 µM (≈ 7.43 µg/mL)	
Clc1ccccc1C(c1ccccc1)(c1ccccc1)n1ccnc1 [Clotrimazole, reference compound]									2.2 µM (≈ 0.759 µg/mL)		1.9 µM (≈ 0.655 µg/mL)	3.1 µM (≈ 1.07 µg/mL)	solubility ([2]; read-out: Solubility Average): 2.6 µM (≈ 0.897 µg/mL); solubility ([2]; read-out: Solubility Rep2): 2.1 µM (≈ 0.724 µg/mL); solubility ([2]; read-out: Solubility Rep3): 2.0 µM (≈ 0.69 µg/mL)
CSc1ccccc1NC(=O)CN(c1cc(Cl)ccc1C)S(C)(=O)=O [Compound 102, 2-(N-(5-chloro-2-methylphenyl)methylsulfonamido)-N-(2-(methylthio)phenyl)acetamide]													proliferation Z score (hepatocyte nuclei count) [3]: 2.24; hit class in the high-throughput liver platform [3]: proliferation-only hit
CCCCC[C@H](O)/C=C/[C@H]1[C@H](O)CC(=O)[C@@H]1C/C=C\CCCC(=O)O [PGE2, Prostaglandin E2, reference compound]													hit class in the high-throughput liver platform [3]: FPH
CCCCOc1cc(CC2CNC(=O)N2)ccc1OC (stereo not drawn) [PH1, 4-(3-butoxy-4-methoxybenzyl)imidazolidin-2-one]													differentiation of iPS-derived endothelial cells (nitric oxide) [5]: induce differentiation; embryonic liver size / liver mass after APAP compared to controls [6]: mitigated APAP-induced loss of liver mass; liver size compared to DMSO-treated controls [7]: increased
